Results as given in PubChem BioAssay (NCI).
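1) Cells in 96-well plates. 2) Compound, 48 h, 5 concentrations. 3) Linear interpolation between surrounding doses. 4) Unreached endpoint = highest concentration. At the GI50, growth is halved. The concentration for full growth arrest is given as TGI.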

Key:
Assay in all cases: growth of human tumour cells (NCI), 48 h
IGROV1 ovarian = test system: IGROV1 ovarian
HCC-2998 colon = test system: HCC-2998 colon
786-0 renal = test system: 786-0 renal
K-562 leukemia = test system: K-562 leukemia
HS 578T breast = test system: HS 578T breast
SF-539 CNS = test system: SF-539 CNS
SF-295 CNS = test system: SF-295 CNS
RXF 393 renal = test system: RXF 393 renal
CCRF-CEM leukemia = test system: CCRF-CEM leukemia
MCF7 breast = test system: MCF7 breast
SF-268 CNS = test system: SF-268 CNS
MDA-MB-435 = test system: MDA-MB-435
PC-3 prostate = test system: PC-3 prostate
OVCAR-4 ovarian = test system: OVCAR-4 ovarian
A549 NSCLC = test system: A549 NSCLC
UO-31 renal = test system: UO-31 renal
EKVX NSCLC = test system: EKVX NSCLC
MOLT-4 leukemia = test system: MOLT-4 leukemia
NCI/ADR-RES ovarian = test system: NCI/ADR-RES ovarian
HCT-15 colon = test system: HCT-15 colon
CAKI-1 renal = test system: CAKI-1 renal
TK-10 renal = test system: TK-10 renal
HOP-62 NSCLC = test system: HOP-62 NSCLC
OVCAR-8 ovarian = test system: OVCAR-8 ovarian
LOX IMVI melanoma = test system: LOX IMVI melanoma
HCT-116 colon = test system: HCT-116 colon
SK-MEL-2 melanoma = test system: SK-MEL-2 melanoma
SK-MEL-5 melanoma = test system: SK-MEL-5 melanoma
HL-60(TB) leukemia = test system: HL-60(TB) leukemia
HT29 colon = test system: HT29 colon
UACC-62 melanoma = test system: UACC-62 melanoma
RPMI-8226 leukemia = test system: RPMI-8226 leukemia
KM12 colon = test system: KM12 colon
COLO 205 colon = test system: COLO 205 colon
SR leukemia = test system: SR leukemia
DU-145 prostate = test system: DU-145 prostate
U251 CNS = test system: U251 CNS
NCI-H522 lung = test system: NCI-H522 lung
SN12C renal = test system: SN12C renal
T-47D breast = test system: T-47D breast
NCI-H23 lung = test system: NCI-H23 lung
MDA-MB-231 breast = test system: MDA-MB-231 breast
SK-MEL-28 melanoma = test system: SK-MEL-28 melanoma
OVCAR-3 ovarian = test system: OVCAR-3 ovarian
NCI-H460 lung = test system: NCI-H460 lung
OVCAR-5 ovarian = test system: OVCAR-5 ovarian
NCI-H226 lung = test system: NCI-H226 lung
SK-OV-3 ovarian = test system: SK-OV-3 ovarian
SW-620 colon = test system: SW-620 colon
A498 renal = test system: A498 renal
M14 melanoma = test system: M14 melanoma
MALME-3M melanoma = test system: MALME-3M melanoma
HOP-92 NSCLC = test system: HOP-92 NSCLC
SNB-75 CNS = test system: SNB-75 CNS
UACC-257 melanoma = test system: UACC-257 melanoma
SNB-19 CNS = test system: SNB-19 CNS
ACHN renal = test system: ACHN renal
BT-549 breast = test system: BT-549 breast

## O=C1c2ccccc2C(=O)c2c(NCCN=Cc3ccccc3O)cccc21
IGROV1 ovarian
  GI50: 2.57 µM
  TGI: 10.3 µM
HCC-2998 colon
  GI50: 7.82 µM
  TGI: 22.6 µM
786-0 renal
  GI50: 6.8 µM
  TGI: 37.9 µM
K-562 leukemia
  GI50: 2.47 µM
  TGI: > 45.1 µM
HS 578T breast
  GI50: 1.72 µM
  TGI: 4.88 µM
SF-539 CNS
  GI50: 2.96 µM
  TGI: 13.3 µM
SF-295 CNS
  GI50: 2.43 µM
  TGI: 5.01 µM
RXF 393 renal
  GI50: 2.18 µM
  TGI: 6.94 µM
CCRF-CEM leukemia
  GI50: 1.43 µM
  TGI: 3.88 µM
MCF7 breast
  GI50: 1.57 µM
  TGI: 5.27 µM
SF-268 CNS
  GI50: 2.7 µM
  TGI: 14.9 µM
MDA-MB-435
  GI50: 2.51 µM
  TGI: 7.4 µM
PC-3 prostate
  GI50: 2.18 µM
  TGI: 8.1 µM
OVCAR-4 ovarian
  GI50: 2.79 µM
  TGI: > 22.9 µM
A549 NSCLC
  GI50: 4.69 µM
  TGI: 14.4 µM
UO-31 renal
  GI50: 2.51 µM
  TGI: 11 µM
EKVX NSCLC
  GI50: 1.79 µM
  TGI: 5.44 µM
MOLT-4 leukemia
  GI50: 3.33 µM
  TGI: > 30.5 µM
NCI/ADR-RES ovarian
  GI50: 10.5 µM
  TGI: > 100 µM
HCT-15 colon
  GI50: 4.03 µM
  TGI: 16.7 µM
CAKI-1 renal
  GI50: 0.434 µM
  TGI: 2.8 µM
TK-10 renal
  GI50: 1.99 µM
  TGI: 6.17 µM
HOP-62 NSCLC
  GI50: 6.61 µM
  TGI: 52.3 µM
OVCAR-8 ovarian
  GI50: 4.93 µM
  TGI: 22.1 µM
LOX IMVI melanoma
  GI50: 3.89 µM
  TGI: 9.63 µM
HCT-116 colon
  GI50: 3.64 µM
  TGI: 15.3 µM
SK-MEL-2 melanoma
  GI50: 4.42 µM
  TGI: 11.3 µM
SK-MEL-5 melanoma
  GI50: 1.51 µM
  TGI: 5.2 µM
HL-60(TB) leukemia
  GI50: 0.235 µM
  TGI: 3.89 µM
HT29 colon
  GI50: 2.26 µM
UACC-62 melanoma
  GI50: 5.59 µM
RPMI-8226 leukemia
  GI50: 0.714 µM
  TGI: 2.62 µM
KM12 colon
  GI50: 2.93 µM
  TGI: 8.37 µM
COLO 205 colon
  GI50: 1.41 µM
  TGI: 3.82 µM
SR leukemia
  GI50: 0.944 µM
  TGI: > 100 µM
DU-145 prostate
  GI50: 2.22 µM
  TGI: 7.66 µM
U251 CNS
  GI50: 5.06 µM
  TGI: 19.5 µM
NCI-H522 lung
  GI50: 6.94 µM
  TGI: > 25.6 µM
SN12C renal
  GI50: 8.28 µM
  TGI: > 54.1 µM
T-47D breast
  GI50: 3.46 µM
  TGI: > 47.1 µM
NCI-H23 lung
  GI50: 12.4 µM
  TGI: > 100 µM
MDA-MB-231 breast
  GI50: 7.91 µM
  TGI: > 80.6 µM
SK-MEL-28 melanoma
  GI50: 3.21 µM
  TGI: 10.4 µM
OVCAR-3 ovarian
  GI50: 2.38 µM
  TGI: 7.92 µM
NCI-H460 lung
  GI50: 2.18 µM
  TGI: 6.91 µM
OVCAR-5 ovarian
  GI50: 14.2 µM
  TGI: 99.3 µM
NCI-H226 lung
  GI50: 7.97 µM
  TGI: > 38.2 µM
SK-OV-3 ovarian
  GI50: 3.54 µM
  TGI: > 48.2 µM
SW-620 colon
  GI50: 2.14 µM
  TGI: 7.07 µM
A498 renal
  GI50: 1.87 µM
  TGI: 6.67 µM
M14 melanoma
  GI50: 7.44 µM
  TGI: 32.7 µM
MALME-3M melanoma
  GI50: 1.55 µM
  TGI: 3.84 µM
HOP-92 NSCLC
  TGI: 0.0676 µM
SNB-75 CNS
  GI50: 2.33 µM
  TGI: 7.6 µM
UACC-257 melanoma
  GI50: 4.84 µM
  TGI: 13.4 µM
SNB-19 CNS
  GI50: 4.31 µM
  TGI: > 54.5 µM
ACHN renal
  GI50: 3.4 µM
  TGI: 16.3 µM
BT-549 breast
  GI50: 2.81 µM
  TGI: 8.51 µM
